This passage reports class results from patent publication US20050197350A1, “Novel quinoline, tetrahydroquinazoline, and pyrimidine derivatives and methods of treatment related to the use thereof” (TAISHO PHARMACEUTICAL CO., LTD., priority 2003, published 2005).

The structures appear in SMILES notation.

In one experiment the test system is MCH receptors. Briefly: MCH receptor activity class (method not given). As to conditions: MCH receptor activity class 1-3 (percent of control at 10^-7 M or IC50).
For `COC(=O)c1sccc1NC(=S)N[C@H]1CC[C@@H](Nc2nccc(N(C)C)n2)CC1` [compound 2357], the class is on record as 3 (Class 3 The value of percent of control at 10^−7 M was more than 60% or the value of IC50 was more than 200 nM.).

Still in this experiment, the particulars now being: MCH receptor; class by percent of control at 10^-7 M or IC50.
With `CSc1ccc(NC(=S)N[C@H]2CC[C@@H](Nc3nc4c(c(N(C)C)n3)CCCC4)CC2)cc1` [compound 1948], the class was 3 (Class 3 The value of percent of control at 10^−7 M was more than 60% or the value of IC50 was more than 200 nM.).

On to `CCC(Oc1ccccc1)C(=O)NC[C@H]1CC[C@@H](Nc2cc(N(C)C)c3ccccc3n2)CC1` (relative stereo) [compound 175, N-[(cis-4-{[4-(dimethylamino)quinolin-2-yl]amino}cyclohexyl)methyl]-2-phenoxybutanamide], for which the class was 3 (Class 3 The value of percent of control at 10^−7 M was more than 60% or the value of IC50 was more than 200 nM.).

Consider `CN(C)c1nc(N[C@H]2CC[C@@H](NC(=S)NC34CC5CC(CC(C5)C3)C4)CC2)nc2c1CCCC2` (relative stereo) [compound 1962], for which the class was 3 (Class 3 The value of percent of control at 10^−7 M was more than 60% or the value of IC50 was more than 200 nM.).

`CN(C)c1cc(N[C@H]2CC[C@@H](CNC(=O)c3cncc(Br)c3)CC2)nc2ccccc12` [compound 215]: the class was 3 (Class 3 The value of percent of control at 10^−7 M was more than 60% or the value of IC50 was more than 200 nM.).

The same experiment, now with this note: activity class 1-3: percent of control at 10^-7 M or IC50.
Take `CN(C)c1cc(N[C@H]2CC[C@@H](NC(=O)OCC(Cl)(Cl)Cl)CC2)nc2ccccc12` [compound 1558]: the class was 3 (Class 3 The value of percent of control at 10^−7 M was more than 60% or the value of IC50 was more than 200 nM.).

On to `CN(C)c1nc(N[C@H]2CC[C@@H](NC(=O)OCc3ccccc3)CC2)nc2c1CCCC2` [compound 1591], for which the class was 3 (Class 3 The value of percent of control at 10^−7 M was more than 60% or the value of IC50 was more than 200 nM.).

The experiment is the same for the next values; noted with them: activity class per percent of control at 10^-7 M or IC50.
On to `CC1=C(CC(=O)N[C@H]2CC[C@@H](Nc3nc4c(c(N(C)C)n3)CCCC4)CC2)c2cc(F)ccc2/C1=C/c1ccc([S+](C)[O-])cc1` (relative stereo) [compound 1019], for which the class is 1 (Class 1: The value of percent of control at 10^−7 M was less than 40% or the value of IC50 was less than 50 nM.).

In the case of `CN(C)c1nc(N[C@H]2CC[C@@H](NC(=O)c3ccc([N+](=O)[O-])cc3)CC2)nc2c1CCCC2` [compound 1046], the class is given as 3 (Class 3 The value of percent of control at 10^−7 M was more than 60% or the value of IC50 was more than 200 nM.).

`CN(C)c1nc(N[C@H]2CC[C@@H](CNC(=O)Cc3ccccc3OC(F)(F)F)CC2)nc2c1CCCC2` [compound 1081]: the class is recorded as 3 (Class 3 The value of percent of control at 10^−7 M was more than 60% or the value of IC50 was more than 200 nM.).

The experiment is the same for the next values; noted with them: class 1-3 by percent of control at 10^-7 M or IC50.
Turning to `Cc1cc(C(=O)NC[C@H]2CC[C@@H](Nc3nccc(N(C)C)n3)CC2)c(C(F)(F)F)o1` [compound 415], the class is on record as 3 (Class 3 The value of percent of control at 10^−7 M was more than 60% or the value of IC50 was more than 200 nM.).

The experiment is the same for the next values; noted with them: class by percent of control at 10^-7 M or IC50.
Turning to `CN(C)c1nc(N[C@H]2CC[C@@H](NC(=O)Nc3ccc(OCc4ccccc4)cc3)CC2)nc2c1CCCC2` [compound 1881], the class was 3 (Class 3 The value of percent of control at 10^−7 M was more than 60% or the value of IC50 was more than 200 nM.).

For `CCCCc1ccc(NC(=O)N[C@H]2CC[C@@H](Nc3cc(N(C)C)c4ccccc4n3)CC2)c(C)c1` [compound 2165], the class is reported as 3 (Class 3 The value of percent of control at 10^−7 M was more than 60% or the value of IC50 was more than 200 nM.).

With `CN(C)c1cc(N[C@H]2CC[C@@H](CNC(=O)Cc3csc4ccccc34)CC2)nc2ccccc12` [compound 811], the class is given as 3 (Class 3 The value of percent of control at 10^−7 M was more than 60% or the value of IC50 was more than 200 nM.).

For the compound `CN(C)c1nc(N[C@H]2CC[C@@H](CNC(=O)c3cccc([N+](=O)[O-])c3)CC2)nc2c1CCCC2` [compound 606], the class is listed as 3 (Class 3 The value of percent of control at 10^−7 M was more than 60% or the value of IC50 was more than 200 nM.).

With `CN(C)c1ccnc(N[C@H]2CC[C@@H](NC(=O)CCCOc3ccccc3)CC2)n1` [compound 338], the class was 3 (Class 3 The value of percent of control at 10^−7 M was more than 60% or the value of IC50 was more than 200 nM.).

Consider `Cc1ccc(C(=O)N[C@H]2CC[C@@H](Nc3nccc(N(C)C)n3)CC2)c(F)c1F` [compound 278], for which the class is reported as 3 (Class 3 The value of percent of control at 10^−7 M was more than 60% or the value of IC50 was more than 200 nM.).

As to `CN(C)c1cc(N[C@H]2CC[C@@H](NC(=O)c3ccc([N+](=O)[O-])s3)CC2)nc2ccccc12` [compound 688, N-(cis-4-{[4-(dimethylamino)quinolin-2-yl]amino}cyclohexyl)-5-nitrothiophene-2-carboxamide], the class is listed as 1 (Class 1: The value of percent of control at 10^−7 M was less than 40% or the value of IC50 was less than 50 nM.).

On to `CN(C)c1ccnc(N[C@H]2CC[C@@H](NC(=O)NCc3ccccc3Cl)CC2)n1` [compound 2195], for which the class is 3 (Class 3 The value of percent of control at 10^−7 M was more than 60% or the value of IC50 was more than 200 nM.).

For `CN(C)c1cc(N[C@H]2CC[C@@H](NC(=O)Nc3ccc(Br)cc3C(F)(F)F)CC2)nc2ccccc12` [compound 2152], the class is on record as 3 (Class 3 The value of percent of control at 10^−7 M was more than 60% or the value of IC50 was more than 200 nM.).

As for `Cc1cc(C(=O)NC[C@H]2CC[C@@H](Nc3nccc(N(C)C)n3)CC2)cc(C)c1OCc1ccccc1` [compound 946], the class was 3 (Class 3 The value of percent of control at 10^−7 M was more than 60% or the value of IC50 was more than 200 nM.).

As to `CN(C)c1nc(N[C@H]2CC[C@@H](NC(=O)Nc3cc(Cl)c(Cl)cc3Cl)CC2)nc2c1CCCC2` [compound 1846], the class is given as 2 (Class 2: The value of percent of control at 10^−7 M was from 40% to 60% or the value of IC′50 was from 50 nM to 200 nM.).

For the compound `CN(C)c1nc(N[C@H]2CC[C@@H](NCCc3ccc(Br)cc3)CC2)nc2c1CCCC2` [compound 1481], the class is given as 3 (Class 3 The value of percent of control at 10^−7 M was more than 60% or the value of IC50 was more than 200 nM.).

For `Cc1cc(Br)ccc1NC(=S)N[C@H]1CC[C@@H](Nc2cc(N(C)C)c3ccccc3n2)CC1` [compound 2284], the class is recorded as 2 (Class 2: The value of percent of control at 10^−7 M was from 40% to 60% or the value of IC′50 was from 50 nM to 200 nM.).

Still in this experiment, the particulars now being: class by percent of control at 10^−7 M or IC50.
In the case of `Cc1nc(N[C@H]2CC[C@@H](NC(=O)c3cc(C(F)(F)F)cc(C(F)(F)F)c3)CC2)nc(N(C)C)c1C` [compound 2841, N-(cis-4-{[4-(dimethylamino)-5,6-dimethylpyrimidin-2-yl]amino}cyclohexyl)-3,5-bis(trifluoromethyl)benzamide], the class is 1 (Class 1: The value of percent of control at 10^−7 M was less than 40% or the value of IC50 was less than 50 nM.).

In the case of `Cc1cc(N(C)C)nc(N[C@H]2CC[C@@H](CNC(=O)c3ccc(Br)c(C)c3)CC2)n1` [compound 2763], the class is 1 (Class 1: The value of percent of control at 10^−7 M was less than 40% or the value of IC50 was less than 50 nM.).
